Test results taken from patent publication US20090305888A1, “Materials and Methods for Providing Oxygen to Improve Seed Germination and Plant Growth” (priority 2006, published 2009).
Like-named read-outs stand apart in the source and are kept apart here.

Assays:
[1] = test system: ADH of corn roots; experiment: ADH activity of roots of flooded corn plants (FIG. 23); format: in vivo; settings: flooded for 3 days
[2] = Solubility product (Ksp) of the peroxides; format: physicochemical
[3] = test system: Bald cypress seedlings; experiment: Flooding and salinity of Bald cypress seedlings; format: in vivo; settings: 8 ppt salinity
Excerpt: Bald cypress is a plant of great ecological and economic significance in Florida. However, these tough, tolerant, inexpensive and somewhat idiosyncratic trees are at the heart of a fast-disappearing ecosystem. Flooding and salinity caused by hurricanes have accelerated the disappearance of the species. Five basins were set up to mimic flooding basins to study the effects of a solid composition of the invention on alleviating the impact of flooding and salinity on Bald cypress seedlings. These basins were established by using plastic swimming pools with 185×152×23 cm plastic tubs for the combined treatment of flooding and salinity to bald cypress seedlings.
Five levels of salinity were presented: 0, 2, 4, 6 and 8 ppt in sodium chloride. Three flooding levels were presented: 0%, 50% and 100% root submergence. 0% flooding level consisted of 100% of the pots being above the water surface; 50% flooding level consisted of 50% of the height of the pots being submerged; and 100% flooding level consisted of 100% of the height of the pots being submerged.
Two oxygen bioavailable levels were provided for those seedlings that were fully flooded with 8 ppt salinity: (1) with composition comprising oxidizing agent or (2) without composition comprising oxidizing agent in the potted soil. […] Survival rates of the potted seedlings were observed and calculated for each of the treatments.

[4] = test system: ADH of corn seedlings; experiment: ADH activity of flooded corn seedlings grown in soil in pots with oxygen fertilizers (FIG. 28); format: in vivo
Method: ADH and NR were extracted in the same extraction buffer including 50 mM Tris-HCl (pH 8.0), 1 mM EDTA, 12 μM mercaptoethanol, and 0.05 mg DTT/ml. Frozen root tissues were ground rapidly in a chilled mortar and pestle with the above chilled extraction buffer. The homogenate was centrifuged at 15 000 g at 4° C. for 15 minutes. One hundred μl of supernatant was added to 800 μl of reaction solution containing 50 mM Tris-HCl buffer at pH 9.0, 1 mM EDTA, and 1 mM NAD. The assay uses 15% (v/v) ethanol as the substrate and measures the production of NADH. Measurement of NADH formation was performed in a spectrophotometer (DU 64, Beckman Instruments, Fullerton, Calif.) for 60 seconds at 340 nm. A unit of ADH is defined as the production of 1 nmol of NADH min^−1 mg^−1 protein.

[5] = Oxygen release from peroxides in water or nutrient solution and its adjustment; format: physicochemical; settings: for oxygen level as nutrient strength increases: nutrient solution with or without companion cations, FIGS. 17 and 18; for increase of oxygen liberated per millimole of EDTA: slope of linear fit, FIG. 10
Method: One hundred milligrams of each of the above solid compositions comprising oxidizing agents was put in a 50 ml polypropylene tube, respectively, unless specialized. 50 ml de-ionized water or nutrient solution was put into the tubes. The strength of the nutrient solutions was 25%, 50%, 100%, 200% or 400% of Yan's formula (Yan, F. et al., “Adaptation of active proton pumping and plasmalemma ATPase activity of corn roots to low root medium pH,” Plant Physiology, 117:311-319 (1998)). The oxygen solutions were allowed to equilibrate over night before any measurements were made.
Oxygen contents in the solutions were determined with an oxygen electrode and ASET system (Applicable Electronics, Inc). Calibration was made by nitrogen aerating deionized water and air equilibrated deionized water. The deionized water consists of 0% oxygen level and the air equilibrated deionized water consists of 21% oxygen content. The temperature of the deionized water was measured and recorded for every measurement. The actual oxygen content in the deionized water at a specific temperature was derived from a handbook of chemistry (David R. Lide, Handbook of Chemistry and Physics, 79th Edition, 1998-1999, pp. 8-87). A regressive equation was formed based on data from calibration calculations and the handbook. All of the observed values were changed into oxygen contents in micromoles through the regressive equation.
Different levels of companion cations of peroxides or chelate were added to the sample solutions. For example, EDTA was added to the 50 ml tubes with peroxide solutions. The peroxide solutions were made in both deionized water and nutrient solutions. After equilibrating overnight, the oxygen contents of the adjusted solutions were analyzed.

[6] = cited from earlier work
[7] = test system: corn seeds; settings: 3/2000 hydrogen peroxide for one day, embryos or endosperm, FIG. 6
Method: The tested seeds were stabilized as described above. The seed samples were soaked in 0.5 mM CaSO4 solution with or without 3/2000 hydrogen peroxide for one day before any measurements were made. Pt/Ir oxygen electrodes were used. The microelectrodes were calibrated before and after each experiment. Calibrations were performed in deionized water saturated with air (which includes 21% oxygen concentration) and then bubbled with nitrogen gas for at least 30 min (so as to provide 0% oxygen concentration). Ten scans were done on either embryos or endosperms.

[8] = test system: corn seed embryos or endosperms; settings: 3/2000 hydrogen peroxide for one day, medium 100 μM CaCl2, FIG. 5
Method: 1.5 mm borosilicate glass capillaries (cat no. TW150-4) that were 10 cm in length were pulled into two micropipettes through a Sutter P-97 at 545° C. The freshly pulled micropipettes were silanized at 200° C. with N,N-Dimethyltrimethylslylamine according to Smith's method (Smith, P J S et al., “Self-referencing, non-invasive, ion selective electrode for single cell direction of trans-plasma membrane,” Microscopy Research and Technique, 46:398-417 (1999)).
Micropipettes were backfilled with H^+ probe backfilling solution of 50 mM KCl and 50 mM HK2PO4.
45 g of Sylgard 184 silicone elastomer and 5 g of Sylgard 184 curing agent (Dow Corporation, USA) were poured into the bottom of a 10 cm Pyrex dish in order to provide a medium for stabilizing the tested treated seeds. One seed was appropriately stabilized in the center of the Pyrex dish with 4 to 5 stainless-steel needles.
Microelectrodes were calibrated before and after each experiment. Calibrations were performed at standard pH 6, 7, and 8 solutions (Fisher Scientific) at 25° C. The Nernst Slopes (in mV decade^−1) were equal or close to 59. Following calibration, the microelectrode was positioned on both the embryos and endosperm of the targeted seed. Then, the embryo and endosperm were, respectively, scanned 100 μm by 100 μm. At least 10 scans were done on either embryo or endosperm.

[9] = test system: ADH of corn seedlings; settings: nutrient solution of 2 mM hydrogen peroxide, FIG. 26
Method: The enzyme assay was performed according to the procedures described by Chung and Ferl (“Arabidopsis Alcohol Dehydrogenase Expression in Both Shoots and Roots Is Conditioned by Root Growth Environment,” Plant Physiol, 121:429-436 (1999)) and modified slightly. ADH and NR were extracted in the same extraction buffer including 50 mM Tris-HCl (pH 8.0), 1 mM EDTA, 12 μM mercaptoethanol, and 0.05 mg DTT/ml. Frozen root tissues were ground rapidly in a chilled mortar and pestle with the above chilled extraction buffer. The homogenate was centrifuged at 15 000 g at 4° C. for 15 minutes. One hundred μl of supernatant was added to 800 μl of reaction solution containing 50 mM Tris-HCl buffer at pH 9.0, 1 mM EDTA, and 1 mM NAD. The assay uses 15% (v/v) ethanol as the substrate and measures the production of NADH. Measurement of NADH formation was performed in a spectrophotometer (DU 64, Beckman Instruments, Fullerton, Calif.) for 60 seconds at 340 nm. A unit of ADH is defined as the production of 1 nmol of NADH min^−1 mg^−1 protein.

[10] = test system: corn root; settings: nutrient solution with 1 mM H2O2 for two days, air bubbling (normoxia), FIG. 31
Method: Each of the untreated 1.5 mm borosilicate glass capillaries (cat no. TW150-4) of 10 cm length was pulled into two micropipettes through a Sutter P-97 at 545° C. The freshly pulled micropipettes were silanized at 200° C. with N,N-Dimethyltrimethylslylamine according to Smith's method (Smith, P J S et al., “Self-referencing, non-invasive, ion selective electrode for single cell direction of trans-plasma membrane,” Microscopy Research and Technique, 46:398-417 (1999)).
The micropipettes were backfilled with a H^+ probe backfilling solution of 50 mM KCl and 50 mM HK2PO4.
A rubber groove of 20 cm in length, 5 cm in width, and 1 cm in height was connected to the pot with 1800 ml nutrient solution via a peristaltic pump (Model: 77120-62, 12 VDC 1 AMP, Mfg by Barnant Company) and non-permeable oxygen tubing. One radicle root was appropriately stabilized in the groove with 4 to 5 Minucie stainless-steel needles. Microelectrodes were calibrated before and after each experiment. Calibrations were done in standard pH 6, 7, and 8 solutions (Fisher Scientific) at 25° C. […] Following calibration, the microelectrode was positioned on the targeted radicle root. The scanning started from the root tip and the root was scanned 100 μm by 100 μm near the root tip. Then the scanning intervals were adjusted gradually from 200 μm to 1000 μm or even longer. About 20000 μm along the root was scanned. […]

[11] = test system: nitrate reductase (NR) of corn seedlings; settings: nutrient solution of 2 mM hydrogen peroxide, FIG. 27
Method: NR assays were performed essentially as described by the protocol of Datta and Sharma (Rupali Datta and Rameshwar Sharma, “Temporal and spatial regulation of nitrate reductase and nitrite reductase in green maize leaves,” Plant Science, 144:77-83 (1999)). NR activity was measured immediately. 200 μl of supernatant was added to 800 μl of reaction solution consisting of 50 mM Tris-HCl buffer (pH 8.0), 1 mM EDTA, 100 μM NADH, 10 mM KNO3 and 1 μM Na2MoO4 in a 2 ml eppendorf tube. The reaction was performed in a water bath of 30° C. and terminated after 60 min by adding 500 μl of an equal volume of sulfanilamide (1% [w/v] in 3 n HCl) and naphthylethylene-diamine dihydrochloride (0.05% [w/v]) to the reaction mixture. The samples were colorimetrically measured at 540 nm. One unit of NR activity was defined as the amount required to produce 1 nmol of nitrite min^−1 mg^−1 protein.

[12] = test system: corn seeds; settings: for germination rate: FIG. 2
Method: Corn seeds of FR27 x FRM017 (GRADE: 24RD) were provided by Illinois Foundation Seeds Inc. Two sets of seeds were used: one set of seeds consisted of fresh seeds and the other set of seeds consisted of seeds that were […].
H2O2 methods: 30 seeds and 50 ml 0.5 mM Ca (as CaSO4) with 3/5000, 3/4000, 3/3000, 3/2000, 3/1000 or 3/100 H2O2, separately, were placed into 9 cm dishes. The seeds were soaked in these solutions for 24 hours and then put on and covered by wet napkins. The napkins were wetted in the soaking solutions, respectively.

[13] = test system: Alcohol dehydrogenase (ADH) of corn embryos; settings: 3/2000 hydrogen peroxide, embryos facing downward, 48 hours after germination at 25° C., FIG. 4
Method: Alcohol dehydrogenase (“ADH”) activities of corn embryos placed in environments with different concentrations of bioavailable oxygen at 48 hours after germination at 25° C. were observed. Before germination, corn seeds were soaked in 0.5 mM CaSO4 solution, in aeroponics, or in 3/2000 H2O2 for 24 hours. All of the embryos were exposed to air except for one sample group treated with water, which was placed into soil.
Following treatment, each corn seed was cut into two halves on the embryo. Four halves of embryos were homogenized in extraction buffer including 50 mM Tris-HCl (pH 8.0), 1 mM EDTA, 0.5 mg/ml DTT, and 12 μM mercaptoethanol. The suspension solution of the enzyme was centrifuged twice at 15000 rpm for 5 min in order to separate oil (on the top) from pellets (at the bottom). The supernatant from the second centrifuge was used to measure ADH activity.
100 μl of the enzyme solution and 900 μl of reaction solution that included 50 mM Tris-HCl (pH 9.0), 1 mM EDTA, and 1 mM NAD were incubated in 1.5 ml Eppendorf tubes in a water bath at 30° C. for 3 min. Then, 100 μl 15% ethanol and the reaction solution were added directly to cuvette. Reaction time was 1 min. in the cuvette at 340 nm. The assay uses ethanol as the substrate and measures the production of NADH. […] The relative ADH activity was calculated based on taking the ADH activity of corn seeds germinated in aeroponics as 100%.

O=C([O-])[O-].O=C([O-])[O-].OO.OO.OO.[Na+].[Na+].[Na+].[Na+] [sodium percarbonate]
ADH level compared with flooded treatment ([1]; 5 g): almost as bad as the flooded treatment without the supply of solid compositions
ADH activity in roots as more solid composition was used [1]: the less ADH activity observed in the tested roots

[Ca+2].[O-][O-] [calcium peroxide]
Ksp relative to magnesium peroxide [2]: about 3000 times
death of seedlings ([3]; 100% flooding): No seedlings died
growth of seedlings ([3]; 100% roots submerged for four days, 20 g per pot, FIG. 32): could grow
effect on ADH of seedlings suffering from flooding [4]: greatly lowered the ADH of the seedlings suffering from flooding
oxygen released into water ([5]; 500 mg solid composition in 50 ml deionized water, FIG. 9): released more oxygen than magnesium peroxide
oxygen level as nutrient strength increases [5]: increases when the nutrient strength increases
increase of oxygen liberated per millimole of EDTA [5]: about 19 micromoles
ADH level compared with control ([1]; 18 g per pot): almost as good as the control
ADH activity in roots as more solid composition was used [1]: the less ADH activity observed in the tested roots

[Mg+2].[O-][O-] [magnesium peroxide]
effect on ADH of seedlings suffering from flooding [4]: greatly lowered the ADH of the seedlings suffering from flooding
oxygen level as nutrient strength increases [5]: very smooth when the nutrient strength increases
increase of oxygen liberated per millimole of EDTA [5]: about 14 micromoles
oxygen released by zero order constant release ([6]; after the first six days): 90%
oxygen released by first order release ([6]; first six days): 10%
ADH activity in roots as more solid composition was used [1]: the less ADH activity observed in the tested roots

OO [hydrogen peroxide]
oxygen consumption rate relative to without hydrogen peroxide [7]: about two
proton flux direction [8]: proton efflux occurs heavily
ADH level compared with control [9]: slightly higher that that of the control
ADH level compared with hypoxic seedlings [9]: greatly lower than those of hypoxic seedlings
protons excreted by roots relative to hypoxia or anoxia [10]: seven to ten
NR level compared with hypoxic seedlings [11]: greatly lower than those of hypoxic seedlings
root lengths ([12]; 3/100 H2O2, third day after germination): 6.8±1.7 mm
germination rates among varying concentrations of H2O2 ([12]; 3/2000 H2O2, FIG. 1): the best germination rates
germination at 24 hours ([12]; 3/2000 H2O2, FIG. 3): all of the seeds were able to germinate at 24 hours
germination rate ([12]; 3/2000 H2O2, new seeds): 95.6%
germination rate ([12]; 3/2000 H2O2, old seeds): 94.4%
root lengths ([12]; 3/2000 H2O2, third day after germination): 34.8±1.7 mm
germination rates of corn seeds compared with non-hydrogen peroxide exposure ([12]; H2O2 3/5000 to 3/100, 48 hours after germination, FIG. 1): significantly better germination rates than non-hydrogen peroxide exposure
diminished ADH activity [13]: about 40%
